Experiment: Wide angle X-ray diffraction of frozen-dried liposome
Type: physicochemical
Conditions: 2θ value at maximum diffraction no more increasing; FIGS. 2 and 3
Description: The structures and the crystallinities (crystalline property) of the liposome were analyzed with powder XRD equipped with wide-angle diffractometer (Rigaku/USA, D/max-RB) using Cu-Kα (λ=1.54 Å) ray. The oleanolic acid (OA) and liposome prepared in Examples 1, 3, 4, 5 and 6 and frozen-dried were analyzed by X-ray diffraction in wide-angle (θ=2-50°), and the structures of hydrocarbon chains and the molecular distances of oleanolic acid (OA) crystals were determined by the result of the X-ray diffraction. […] Diffractions in a wide range of near 20° were observed because lipids formed smectic (lamellar) liquid-crystal phase, which correspond to the distances between lipid molecules.

content of OA at which OA is saturated in the bi-layer of the liposome: 25.4 mole %
SMILES: CC1(C)CC[C@]2(C(=O)O)CC[C@]3(C)C(=CC[C@@H]4[C@@]5(C)CC[C@H](O)C(C)(C)[C@@H]5CC[C@]43C)[C@@H]2C1 [OA, oleanolic acid]

— US20040180082A1, “Submicron-liposome containing triterpenoid and a method for preparing the same” (AMOREPACIFIC CORPORATION, priority 2002, published 2004)
